Data set [1] is classed as in vivo, human volunteers. The conditions noted are these: in vivo. The procedure: The saliva samples were refrigerated until analysis.
To either 2.7 grams unchewed gum sample or the remaining bolus of chewed gum, was added 3.0 millileters of internal standard (Hesperetin) in methanol, 6.0 milliliters hexane and 3.0 milliliters distilled water. Samples were homogenized using a Polytron Homogenizer model PT10/35 from Brinkmann Instruments, fitted with a PTA10TS generator for at least 30 seconds on ice, or until no lumps of non-dispersed gum were visible in the sample. Samples were then centrifuged in a Dynac Tabletop Centrifuge at top speed for ten minutes. The lower, amber, aqueous/methanol layer were then filtered through 25 millimeter, 0.45 micrometer nylon Acrodisc syringe filters from Gelman into 4 milliliter autosampler vials and tightly capped with polytetrafluorothylene lined septum in open-top screw caps. These samples were then analyzed using high pressure liquid chromatography for glabridin and/or glycyrrhizic and 18β-glycyrrhetinic acid, and were quantitated against a 4-point linear curve prepared by spiking approximately 2.7 grams unchewed samples of Wrigley Extra Sugarfree Peppermint gum with known levels of purified glabridin, glycyrrhizic acid monoammonium salt and 18β-glycyrrhetinicacid.
For the analysis of the gum bolus, both chewed and unchewed, a Polytron Homogenizer, described above was used. The gum sample was placed in a heavy wall glass tube. Internal standard ([…]) ethyl acetate ([…]) and water ([…]) were added. The sample was homogenized for approximately 30 seconds, or until no particles could be seen. The tubes were then centrifuged for 10 minutes on a clinical centrifuge at maximum speed. The supernatant was injected directly onto the gas chromatograph. The oven program was modified to allow resolution of ROF1 components from those of the peppermint flavoring. The gas chromatograph was calibrated using a three point standard curve to quantify the following components: menthol (flavor); geraniol (oil geraniol); cedrene, thujopsene (RC1); pinene, cineol, camphor, bornyl acetate (ROF1). The initial temperature was decreased from 140° C. to 100° C. The temperature gradient was changed from 10° C./minute to 4° C./minute. The split ratio was 50:1, and injection volume was 1 μL as per the method. A cleanup gradient was run every fifth sample as described previously.
A recovery study was performed in triplicate using blank Wrigley's Peppermint Gum (chewed and unchewed) spiked with stand and solution. Recovery was calculated relative to a direct standard consisting of spike solution without sample matrix.

The conditions of data set [2]: for Above MIC in Saliva (Y/N): concentration in saliva at any time above MIC relative to Porphyromonas gingivalis.
Description: (§1) Ten volunteers chewed 2.7 grams samples of each gum formulation and provided saliva samples at intervals and the gum bolus at the end of the 25 minute chewing period. High pressure liquid chromatography and gas chromatography were used to analyze the gum bolus and saliva non-volatile and volatile components, respectively.
(§2) Saliva samples were collected from each of the individuals prior to chewing 2.7 grams of gum, and at 1.0, 2.5, 5.0, 10.0, and 25.0 minutes while chewing the gum. The saliva samples were refrigerated until analysis. The gum bolus that remained after 25 minutes was saved and extracted immediately or stored refrigerated until extraction for analysis.
(§3) Samples were Vortex-mixed in Multi-tube vortex mixer for one minute and then centrifuged at top speed in clinical centrifuge for two minutes. Supernatants were carefully transferred to 1 milliliter glass shell vials and capped. Analysis was carried out either by isocratic elution for glabridin-only samples, or gradient elution for the samples containing the glycyrrhizic and 18β-glycyrrhetinic acids using high pressure liquid chromatography. Glabridin concentrations were converted to GLY concentrations by taking the weight percent glabridin in GLY to be 2.74 percent.
(§4) The calibration curve was prepared using spiked blank saliva.
(§5) For saliva, the essential oils of menthol, cedarwood oil, geraniol and Rosmarinus officianalis were determined by capillary gas chromatography. The split ratio was 25:1. The injection volume was 2 μL. Four hundred μL of saliva was extracted from the 1 milliliter of ethyl acetate containing an internal standard (hexadecane) in 1.5 milliliter Eppendorf tubes. After centrifugation, the organic layer was injected directly into the Hewlett-Packard 6890 gas chromatograph. […] For this reason, only the samples from 0 to 10 minutes were analyzed. A cleanup gradient was run from 190 to 300° C. every fifth sample to remove less volatile interferences from the column.
Data set [3] can be described thus: clinical. To be noted: human, in vivo.
Description: as §1, §2, §3, §4, §5

Counter-ions that a name gives are not always drawn.

As to `CC1(C)[C@@H](O)CC[C@]2(C)[C@H]3C(=O)C=C4[C@@H]5C[C@@](C)(C(=O)O)CC[C@]5(C)CC[C@@]4(C)[C@]3(C)CC[C@@H]12` [GA, 18β-Glycyrrhetinic acid], the “Release from Chewed Gum Bolus after 25 min” value in data set [1] is listed as 15%. The “Above MIC in Saliva (Y/N)” value in data set [2] was “No”. In data set [3], this molecule came in with a concentration at 1 min of 1.8 µg/mL, a concentration at 2.5 min of 1.5 µg/mL, a concentration at 5 min of 1.6 µg/mL and a concentration at 10 min of 1.8 µg/mL. In data set [3], this molecule yielded a concentration at 25 min of 2.3 µg/mL.
As for `CC1(C)[C@@H](O[C@H]2O[C@H](C(=O)O)[C@@H](O)[C@H](O)[C@H]2O[C@@H]2O[C@H](C(=O)O)[C@@H](O)[C@H](O)[C@H]2O)CC[C@]2(C)[C@H]3C(=O)C=C4[C@@H]5C[C@@](C)(C(=O)O)CC[C@]5(C)CC[C@@]4(C)[C@]3(C)CC[C@@H]12` [GR, Glycyrrhizic Acid, Monoammonium salt], the “Release from Chewed Gum Bolus after 25 min” value in data set [1] is on record as 85%. Also, in data set [2], the “Above MIC in Saliva (Y/N)” value was “Yes”. Also, in data set [2] (human, in vivo), the “Rate of release from gum” value was “released from a gum base less quickly and over a longer period of time”. In addition, the “Maintenance of concentration in oral cavity above MIC” value in data set [2] (in words, released from a gum composition) is “maintain a concentration in the oral cavity at a level above the MIC”. In data set [3], the concentration at 1 min was determined as 3100 µg/mL, the concentration at 2.5 min was found to be 111 µg/mL, the concentration at 5 min was found to be 55 µg/mL and the concentration at 10 min was 30 µg/mL. The concentration at 25 min in data set [3] was 10 µg/mL.

For the origin of these results see US6248309A, “Gums containing antimicrobial agents” (priority 1999, dated 2001).
